Consider seven compounds from ChEMBL document CHEMBL4610078, “Bioactive Azepine-Indole Alkaloids from Psychotria nemorosa” (J Nat Prod, 2020).

Assay [1] deals with Acetylcholinesterase (Electrophorus electricus) (UniProt O42275). Description: Inhibition of electric eel AchE using acetylthiocholine as substrate at 10 uM measured for 6 mins by Ellman's method. For orientation: In Ellman's method for cholinesterases, released thiocholine reacts with DTNB.
Assay [2] addresses T1, Amine oxidase [flavin-containing] B (Homo sapiens, UniProt P27338).
T1 sequence (P27338 whole entry): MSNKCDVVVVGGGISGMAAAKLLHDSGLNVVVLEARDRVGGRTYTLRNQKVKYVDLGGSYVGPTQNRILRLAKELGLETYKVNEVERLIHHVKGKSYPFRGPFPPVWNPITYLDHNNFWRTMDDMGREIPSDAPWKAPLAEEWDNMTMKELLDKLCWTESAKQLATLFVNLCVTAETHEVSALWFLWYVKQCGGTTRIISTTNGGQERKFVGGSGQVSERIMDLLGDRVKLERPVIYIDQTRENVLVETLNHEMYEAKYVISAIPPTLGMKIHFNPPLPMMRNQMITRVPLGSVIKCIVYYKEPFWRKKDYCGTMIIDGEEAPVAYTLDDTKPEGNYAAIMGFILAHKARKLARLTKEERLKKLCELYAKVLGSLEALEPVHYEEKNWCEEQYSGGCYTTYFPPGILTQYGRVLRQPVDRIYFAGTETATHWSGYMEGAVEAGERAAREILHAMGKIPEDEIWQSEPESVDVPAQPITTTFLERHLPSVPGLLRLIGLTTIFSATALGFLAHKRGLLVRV
Conditions: 0.5 h, read-out: INH.
Description: Inhibition of recombinant human MAO-B at 10 uM incubated for 30 mins by fluorescence-based method

The target of assay [3] is Cholinesterase (Equus caballus) (UniProt P81908). Description: Inhibition of equine serum BChE using (S)-butyrylthiocholine iodide as substrate at 10 uM measured for 6 mins by Ellman's method.
Assay [4] addresses T2, Amine oxidase [flavin-containing] A (Homo sapiens, UniProt P21397).
T2 sequence (P21397 whole entry): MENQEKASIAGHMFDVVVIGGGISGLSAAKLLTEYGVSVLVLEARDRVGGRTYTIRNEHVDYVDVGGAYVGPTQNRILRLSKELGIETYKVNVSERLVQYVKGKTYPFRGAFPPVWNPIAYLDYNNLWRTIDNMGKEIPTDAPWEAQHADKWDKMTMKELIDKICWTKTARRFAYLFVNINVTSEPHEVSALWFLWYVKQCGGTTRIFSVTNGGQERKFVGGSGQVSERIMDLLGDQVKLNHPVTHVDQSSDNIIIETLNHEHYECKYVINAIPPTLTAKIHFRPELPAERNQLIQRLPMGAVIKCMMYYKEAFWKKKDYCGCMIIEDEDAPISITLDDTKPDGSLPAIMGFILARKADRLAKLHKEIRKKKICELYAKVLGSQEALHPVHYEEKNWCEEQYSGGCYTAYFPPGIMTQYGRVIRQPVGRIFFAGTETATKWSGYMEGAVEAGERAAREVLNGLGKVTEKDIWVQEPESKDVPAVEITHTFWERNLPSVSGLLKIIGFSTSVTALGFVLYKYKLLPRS
Description: Inhibition of recombinant human MAO-A incubated for 30 mins by fluorescence-based method

The source made the active and inactive calls. The rule behind the calls is not given here. Where only a bound is given, the exact number is not on record here.

Chain of Cholinesterase (Equus caballus) (P81908 whole entry): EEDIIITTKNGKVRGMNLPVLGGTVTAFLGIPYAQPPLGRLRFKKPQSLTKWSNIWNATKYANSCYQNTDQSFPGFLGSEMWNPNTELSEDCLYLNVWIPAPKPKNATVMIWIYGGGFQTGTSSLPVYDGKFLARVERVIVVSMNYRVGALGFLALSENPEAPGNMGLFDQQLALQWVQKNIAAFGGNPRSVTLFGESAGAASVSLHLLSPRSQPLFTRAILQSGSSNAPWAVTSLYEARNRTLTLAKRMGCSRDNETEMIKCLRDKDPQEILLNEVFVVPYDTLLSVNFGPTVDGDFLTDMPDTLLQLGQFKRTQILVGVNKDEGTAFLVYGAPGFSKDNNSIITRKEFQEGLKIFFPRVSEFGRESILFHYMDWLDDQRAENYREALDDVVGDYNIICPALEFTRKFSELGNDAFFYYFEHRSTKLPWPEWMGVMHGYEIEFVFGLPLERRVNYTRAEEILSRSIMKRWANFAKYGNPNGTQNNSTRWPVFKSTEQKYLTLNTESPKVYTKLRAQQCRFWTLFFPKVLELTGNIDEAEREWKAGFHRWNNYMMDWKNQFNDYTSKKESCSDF
Chain of Acetylcholinesterase (Electrophorus electricus) (O42275 24-633 limits assumed): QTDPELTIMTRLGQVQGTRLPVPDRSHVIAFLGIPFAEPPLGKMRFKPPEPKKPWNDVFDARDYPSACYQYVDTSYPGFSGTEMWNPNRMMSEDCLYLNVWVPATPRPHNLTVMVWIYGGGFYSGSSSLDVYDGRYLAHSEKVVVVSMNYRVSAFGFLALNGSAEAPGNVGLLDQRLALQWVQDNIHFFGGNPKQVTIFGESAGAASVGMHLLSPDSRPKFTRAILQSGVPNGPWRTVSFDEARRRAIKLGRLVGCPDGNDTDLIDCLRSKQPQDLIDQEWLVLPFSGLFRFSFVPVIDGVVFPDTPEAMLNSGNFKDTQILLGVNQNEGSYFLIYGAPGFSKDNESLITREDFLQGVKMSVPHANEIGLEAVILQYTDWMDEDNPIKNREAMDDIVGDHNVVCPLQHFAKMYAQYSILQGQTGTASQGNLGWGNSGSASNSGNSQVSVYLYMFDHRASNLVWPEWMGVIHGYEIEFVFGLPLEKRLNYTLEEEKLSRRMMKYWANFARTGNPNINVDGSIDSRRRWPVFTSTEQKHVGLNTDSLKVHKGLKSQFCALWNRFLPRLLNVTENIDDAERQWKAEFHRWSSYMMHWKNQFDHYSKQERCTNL

For `C[N+]1([O-])CCc2c[nH]c3ccc(O)c(c23)C1` (configuration not stated), in assay [1], the inhibition result was “inactive”. Moreover, the inhibition at 10 µM in assay [2] is 27%. For the same compound, the inhibition in assay [3] came to 41%. The same compound returned an IC50 in assay [4] of 1400 nM.
Regarding `C[N+]1=Cc2c(O)ccc3[nH]cc(c23)CC1`, the inhibition entry in assay [1] is “inactive”. Also, the inhibition at 10 µM in assay [2] was 31%. For the same compound, in assay [3], the inhibition turned out to be 21%. In assay [4], this compound gave an IC50 of 900 nM.
For `C=C[C@H]1[C@H](O[C@@H]2O[C@H](COC(=O)/C=C/c3ccc(OC)c(OC)c3)[C@@H](O)[C@H](O)[C@H]2O)OC=C(C(=O)OC)[C@H]1C[C@H]1c2c(O)ccc3[nH]cc(c23)CCN1C`, the inhibition entry in assay [1] and in assay [3] was “inactive” each time. This compound also displayed an IC50 in assay [4] above 10000 nM.
For `C=C[C@H]1[C@H](O[C@@H]2O[C@H](CO)[C@@H](O)[C@H](O)[C@H]2O)OC=C(C(=O)OC)[C@H]1C[C@@H]1c2c(O)ccc3[nH]cc(c23)CCN1C`, the inhibition result in assay [1] and in assay [3] was “inactive” in each case. The same compound gave an IC50 in assay [4] above 10000 nM.
On to `C=C[C@H]1[C@H](O[C@@H]2O[C@H](CO)[C@@H](O)[C@H](O)[C@H]2O)OC=C(C(=O)OC)[C@H]1C[C@H]1c2c(O)ccc3[nH]cc(c23)CCN1C`, for which the inhibition entry in assay [1] and in assay [3] was “inactive” in each case. This compound had a half-maximal inhibitory concentration (IC50) in assay [4] above 10000 nM.
Consider `CN1CCc2c[nH]c3ccc(O)c(c23)C1`, for which the inhibition entry in assay [1] was “inactive”. In addition, the inhibition at 10 µM in assay [2] came to 22%. In assay [3], this compound gave an inhibition of 18%. The midpoint of inhibition in assay [4], the IC50, lay at 1400 nM.
`C#CCN(C)Cc1ccccc1` [PARGYLINE]: in assay [2], the inhibition at 10 µM amounted to 0.14%.

By IC50 is commonly meant the midpoint of a concentration-inhibition curve. A higher IC50 goes with weaker potency.
